Patent US7109338B2, “1,2-disubstituted 1,4-dihydro-4-oxoquinoline compounds” (priority 1999, dated 2006)
Converted amounts (≈) assume the structure as drawn.

Tests used:
[1] = tested on: HeLa (Ohio strain)cells; assay: Cytotoxicity (MTT, without virus), HeLa(Ohio); settings: HeLa(Ohio), no virus, incubated for 4 days
[2] = tested on: HeLa-S3 cells; assay: Cytotoxicity (MTT, without virus), HeLa-S3; settings: HeLa-S3, no virus, incubated for 4 days
[3] = tested on: HRV50(A2#58); assay: Anti-rhinovirus spectrum (MTT), HRV50; assay type: cell-based, human rhinovirus; parameters: Anti-Rhinovirus activity, HRV50: unit not given here
[4] = tested on: coxsackievirus type A7 (CA7); assay: In vitro anti-picornavirus activity (MTT), CA7; assay type: cell-based; settings: HeLa-S3 cells, MTT method, 37° C.
[5] = tested on: HRV14 (1059); assay: Anti-rhinovirus activity (MTT), HRV14; assay type: cell-based, human rhinovirus; parameters: Anti-Rhinovirus activity, HRV14: unit not given here
[6] = tested on: HRV33 (1200); assay: Anti-rhinovirus spectrum (MTT), HRV33; assay type: cell-based, human rhinovirus; parameters: Anti-Rhinovirus activity, HRV33: unit not given here
[7] = tested on: HRV13 (353); assay: Anti-rhinovirus spectrum (MTT), HRV13; assay type: cell-based, human rhinovirus; parameters: Anti-Rhinovirus activity, HRV13: unit not given here
[8] = tested on: HeLa cells; assay: Cytotoxicity (MTT, without virus), HeLa; settings: HeLa, no virus, incubated for 4 days
[9] = tested on: Poliovirus type 1 (Polio 1, Sabin); assay: microbe, parasite or virus in culture; assay type: cell-based
[10] = tested on: simian rotavirus (SRoV, SA11); assay: In vitro anti-rotavirus activity (plaque reduction), SRoV; assay type: cell-based; settings: MA104 cells, four days after infection
Method: (§1) Human rotavirus (HROV, Odelia) and simian rotavirus (SRoV, SA11) were used in this experiment. Confluent monolayers of MA104 cells in 6-well multiplate were washed with Eagle MEM containing 0.5 μg/ml of trypsin and were infected with tripsinized-rotavirus (treated with 10 μg/ml of tripsin at 37° C. for 1.5 hr) at 50 PFU per well. After 1 hr of adsorption, the virus inoculum was removed, and the monolayers were washed with Eagle MEM containing 0.5 μg/ml of trypsin and overlaid with Eagle MEM containing 1 μg/ml of trypsin, 0.6% purified agar and the test compounds at various concentrations. The cultures were incubated at 37° C. for 3 days and same overlay medium was added. Four days after infection, the cell sheets were washed with PBS and stained with 1.3% crystal violet in 95% ethanol. The antiviral efficacy of the compounds was expressed as the IC50, that is the concentration of the compounds required to reduce the number of plaques to 50% in the control (virus-infected, but […]).

[11] = tested on: clinical isolate (89229T); assay: microbe, parasite or virus in culture; assay type: cell-based, human rhinovirus; parameters: Anti-Rhinovirus activity, Clinical isolated strain: unit not given here
[12] = tested on: HRV31 (41F); assay: Anti-rhinovirus spectrum (MTT), HRV31; assay type: cell-based, human rhinovirus; parameters: Anti-Rhinovirus activity, HRV31: unit not given here
[13] = tested on: Human rotavirus (HROV, Odelia); assay: In vitro anti-rotavirus activity (plaque reduction), HRoV; assay type: cell-based; settings: MA104 cells, four days after infection
Method: as §1

[14] = tested on: HRV61 (6669-CV39); assay: Anti-rhinovirus spectrum (MTT), HRV61; assay type: cell-based, human rhinovirus; parameters: Anti-Rhinovirus activity, HRV61: unit not given here
[15] = tested on: human rhinovirus type 1B (HRV 1B, B632); assay: Anti-rhinovirus activity (MTT), HRV1B; assay type: cell-based; parameters: Anti-Rhinovirus activity, HRV1B: unit not given here; settings: for IC50 HRV1B: HeLa (Ohio strain) cells, MTT method, 33° C.
[16] = tested on: HRV10 (204-CV14); assay: Anti-rhinovirus spectrum (MTT), HRV10; assay type: cell-based, human rhinovirus; parameters: Anti-Rhinovirus activity, HRV10: unit not given here
[17] = tested on: HRV39 (209); assay: Anti-rhinovirus spectrum (MTT), HRV39; assay type: cell-based, human rhinovirus; parameters: Anti-Rhinovirus activity, HRV39: unit not given here
[18] = tested on: HRV36 (342H); assay: Anti-rhinovirus spectrum (MTT), HRV36; assay type: cell-based, human rhinovirus; parameters: Anti-Rhinovirus activity, HRV36: unit not given here
[19] = tested on: HRV 2 (HGP); assay: Anti-rhinovirus activity (MTT), HRV2; assay type: cell-based, human rhinovirus; parameters: Anti-Rhinovirus activity, HRV2: unit not given here; settings: for IC50 HRV2: HeLa (Ohio strain) cells, MTT method, 33° C.
[20] = tested on: HRV8(MRH); assay: Anti-rhinovirus spectrum (MTT), HRV8; assay type: cell-based, human rhinovirus; parameters: Anti-Rhinovirus activity, HRV8: unit not given here
[21] = tested on: HRV41 (56110); assay: Anti-rhinovirus spectrum (MTT), HRV41; assay type: cell-based, human rhinovirus; parameters: Anti-Rhinovirus activity, HRV41: unit not given here
[22] = tested on: HRV 89 (41617-Gallo); assay: Anti-rhinovirus activity (MTT), HRV89; assay type: cell-based, human rhinovirus; parameters: Anti-Rhinovirus activity, HRV89: unit not given here; settings: for IC50 HRV89: HeLa (Ohio strain) cells, MTT method, 33° C.
[23] = tested on: HRV16 (11757); assay: Anti-rhinovirus spectrum (MTT), HRV16; assay type: cell-based, human rhinovirus; parameters: Anti-Rhinovirus activity, HRV16: unit not given here
[24] = tested on: coxsackievirus type B4 (CB4,JVB); assay: In vitro anti-picornavirus activity (MTT), CB4; assay type: cell-based; settings: HeLa cells, MTT method, 37° C.
[25] = tested on: HRV3(FEB); assay: Anti-rhinovirus spectrum (MTT), HRV3; assay type: cell-based, human rhinovirus; parameters: Anti-Rhinovirus activity, HRV3: unit not given here
[26] = tested on: HRV29 (5582); assay: Anti-rhinovirus spectrum (MTT), HRV29; assay type: cell-based, human rhinovirus; parameters: Anti-Rhinovirus activity, HRV29: unit not given here
[27] = tested on: HRV21 (47); assay: Anti-rhinovirus spectrum (MTT), HRV21; assay type: cell-based, human rhinovirus; parameters: Anti-Rhinovirus activity, HRV21: unit not given here
[28] = tested on: echovirus type 11 (Echo 11, Gregory); assay: In vitro anti-picornavirus activity (MTT), Echo 11; assay type: cell-based; settings: HeLa-S3 cells, MTT method, 37° C.
[29] = tested on: HRV32 (363); assay: Anti-rhinovirus spectrum (MTT), HRV32; assay type: cell-based, human rhinovirus; parameters: Anti-Rhinovirus activity, HRV32: unit not given here
[30] = tested on: HRV1A (E28); assay: Anti-rhinovirus activity (MTT), HRV1A; assay type: cell-based, human rhinovirus; parameters: Anti-Rhinovirus activity, HRV1A: unit not given here
[31] = tested on: HRV5; assay: Anti-rhinovirus spectrum (MTT), HRV5; assay type: cell-based, human rhinovirus; parameters: Anti-Rhinovirus activity, HRV5: unit not given here
[32] = HeLa (Ohio strain) cells, MTT method, 33° C.

SMILES: Cc1c(-c2ccccc2)n(-c2ccc(F)cc2)c2ccc(C(C)C)cc2c1=O [Compound A323]
- Cytotoxicity CC50 HeLa(Ohio) [1]: >2 µg/mL
- Cytotoxicity CC50 HeLa-S3 [2]: >2 µg/mL
- Anti-Rhinovirus activity, HRV50 ([3]; Table VII, rhinovirus serotype HRV50): 0.038
- IC50 CA7 [4]: >2 µg/mL
- Anti-Rhinovirus activity, HRV14 ([5]; Table VII, rhinovirus serotype HRV14): >2.0
- Anti-Rhinovirus activity, HRV33 ([6]; Table VII, rhinovirus serotype HRV33): 0.30
- Anti-Rhinovirus activity, HRV13 ([7]; Table VII, rhinovirus serotype HRV13): 0.12
- Cytotoxicity CC50 HeLa [8]: >2 µg/mL
- IC50 Polio 1 [9]: >2 µg/mL
- Anti-rotavirus activity IC50 SRoV(SA11) [10]: 0.90 µg/mL
- Anti-rhinovirus activity Clinically isolated strain ([11]; Table VII, clinical isolate (89229T)): 0.030
- Anti-Rhinovirus activity, HRV31 ([12]; Table VII, rhinovirus serotype HRV31): 0.088
- Anti-rotavirus activity IC50 HRoV(Odelia) [13]: 1.30 µg/mL
- Anti-Rhinovirus activity, HRV61 ([14]; Table VII, rhinovirus serotype HRV61): 0.30
- IC50 HRV1B [15]: 0.27 µg/mL (≈ 0.727 µM)
- Anti-Rhinovirus activity, HRV1B ([15]; Table VII, rhinovirus serotype HRV1B): 0.27
- Anti-Rhinovirus activity, HRV10 ([16]; Table VII, rhinovirus serotype HRV10): 0.032
- Anti-Rhinovirus activity, HRV39 ([17]; Table VII, rhinovirus serotype HRV39): 0.018
- Anti-Rhinovirus activity, HRV36 ([18]; Table VII, rhinovirus serotype HRV36): 0.13
- IC50 HRV2 [19]: 0.038 µg/mL (≈ 0.102 µM)
- Anti-Rhinovirus activity, HRV2 ([19]; Table VII, rhinovirus serotype HRV2): 0.038
- Anti-Rhinovirus activity, HRV8 ([20]; Table VII, rhinovirus serotype HRV8): >2.0
- Anti-Rhinovirus activity, HRV41 ([21]; Table VII, rhinovirus serotype HRV41): 0.058
- IC50 HRV89 [22]: 0.011 µg/mL (≈ 0.0296 µM)
- Anti-Rhinovirus activity, HRV89 ([22]; Table VII, rhinovirus serotype HRV89): 0.011
- Anti-Rhinovirus activity, HRV16 ([23]; Table VII, rhinovirus serotype HRV16): 0.033
- IC50 CB4 [24]: >2 µg/mL
- Anti-Rhinovirus activity, HRV3 ([25]; Table VII, rhinovirus serotype HRV3): >2.0
- Anti-Rhinovirus activity, HRV29 ([26]; Table VII, rhinovirus serotype HRV29): 0.11
- Anti-Rhinovirus activity, HRV21 ([27]; Table VII, rhinovirus serotype HRV21): 0.067
- IC50 Echo 11 [28]: >2 µg/mL
- Anti-Rhinovirus activity, HRV32 ([29]; Table VII, rhinovirus serotype HRV32): 0.077
- Anti-Rhinovirus activity, HRV1A ([30]; Table VII, rhinovirus serotype HRV1A, same method as above): >2.0
- Anti-Rhinovirus activity, HRV5 ([31]; Table VII, rhinovirus serotype HRV5): >2.0

SMILES: CCc1ccc2c(c1)Cc1c-2n(CC)c2ccc(C(C)C)cc2c1=O [Compound B9, 2.5-Diethyl-8-isopropyl-5,10-dihydro-11H-indeno[1,2-b]quinolin-10-one]
- Cytotoxicity CC50 HeLa(Ohio) [1]: >1 µg/mL
- Cytotoxicity CC50 HeLa-S3 [2]: >1 µg/mL
- Anti-Rhinovirus activity, HRV50 ([3]; HRV50): 0.13
- IC50 CA7 [4]: 0.71 µg/mL (≈ 2.14 µM)
- Anti-Rhinovirus activity, HRV14 ([5]; HRV14): 0.58
- IC50 HRV 14 [5, 32]: 0.58 µg/mL (≈ 1.75 µM)
- Anti-Rhinovirus activity, HRV33 ([6]; HRV33): 0.094
- Anti-Rhinovirus activity, HRV13 ([7]; HRV13): 0.14
- Cytotoxicity CC50 HeLa [8]: >1 µg/mL
- IC50 Polio 1 [9]: 0.18 µg/mL (≈ 0.543 µM)
- Anti-rotavirus activity IC50 SRoV(SA11) [10]: 0.59 µg/mL
- Anti-Rhinovirus activity, Clinical isolated strain ([11]; Clinical isolated strain): 0.31
- Anti-Rhinovirus activity, HRV31 ([12]; HRV31): 0.15
- Anti-rotavirus activity IC50 HRoV(Odelia) [13]: 0.56 µg/mL
- Anti-Rhinovirus activity, HRV61 ([14]; HRV61): 0.16
- Anti-Rhinovirus activity, HRV1B ([15]; HRV1B): 0.25
- IC50 HRV1B [15]: 0.25 µg/mL (≈ 0.754 µM)
- Anti-Rhinovirus activity, HRV10 ([16]; HRV10): 0.47
- Anti-Rhinovirus activity, HRV39 ([17]; HRV39): 0.20
- Anti-Rhinovirus activity, HRV36 ([18]; HRV36): 0.16
- Anti-Rhinovirus activity, HRV2 ([19]; HRV2): 0.20
- IC50 HRV2 [19]: 0.20 µg/mL (≈ 0.603 µM)
- Anti-Rhinovirus activity, HRV8 ([20]; HRV8): 0.15
- Anti-Rhinovirus activity, HRV41 ([21]; HRV41): 0.13
- Anti-Rhinovirus activity, HRV89 ([22]; HRV89): 0.21
- IC50 HRV89 [22]: 0.21 µg/mL (≈ 0.634 µM)
- Anti-Rhinovirus activity, HRV16 ([23]; HRV16): 0.47
- IC50 CB4 [24]: 0.56 µg/mL (≈ 1.69 µM)
- Anti-Rhinovirus activity, HRV3 ([25]; HRV3): 0.23
- Anti-Rhinovirus activity, HRV29 ([26]; HRV29): 0.19
- Anti-Rhinovirus activity, HRV21 ([27]; HRV21): 0.16
- IC50 Echo 11 [28]: 0.18 µg/mL (≈ 0.543 µM)
- Anti-Rhinovirus activity, HRV32 ([29]; HRV32): 0.13
- Anti-Rhinovirus activity, HRV1A ([30]; HRV1A): >1.0
- IC50 HRV 1A [30, 32]: >1 µg/mL
- Anti-Rhinovirus activity, HRV5 ([31]; HRV5): 0.17
